Experimental data reported in patent US11008357B2, “Method for preparing canagliflozin amorphous form” (Zhejiang Huahai Pharmaceutical Co., Ltd., priority 2017, dated 2021).
Read-outs that look alike come from different tables or passages of the source.

Key:
[1] = stability test conditions not documented in the literature; cited from earlier work
[2] = Stability test of canagliflozin amorphous forms (moisture absorption, crystal transition); assay type: physicochemical; details: Temperature 25 ± 5° C., Humidity 50-60%, 3 months
Description: In order to illustrate that the canagliflozin amorphous form of the present invention is different from the amorphous form prepared by the general amorphous preparation method, the inventors select and compare the amorphous forms obtained by the above-mentioned practical methods, including rapid evaporation of solvent for curing, mixed solvent method and other related methods.

Row | Crystal transition or not [2] | Obvious moisture absorption or not [2] | Structure (SMILES) | Crystal transition or not [1] | Obvious moisture absorption or not [1]
1 | – | – | Cc1ccc([C@@H]2O[C@H](CO)[C@@H](O)[C@H](O)[C@H]2O)cc1Cc1ccc(-c2ccc(F)cc2)s1 [CN103889429 Example 2] | No | No obvious
2 | No | No obvious | Cc1ccc([C@@H]2O[C@H](CO)[C@@H](O)[C@H](O)[C@H]2O)cc1Cc1ccc(-c2ccc(F)cc2)s1 [CN104119323 Example 1, reference compound] | – | –
